Experimental data as given in patent US6165998A, “Antifungal agents” (Scriptgen Pharmaceuticals, Inc., priority 1998, dated 2000).
In brackets after ≈: the same amount, converted by molar mass. Where two headings read alike, the source gives them in different places.

Experiments:
[1] = biological target: T1, C. albicans RNA polymerase II (Candida albicans, UniProt A0A1D8PUA6+Q5A8Y5); assay: biochemical; settings: for IC50: read-out: IC50 Candida pol II; for inhibition at 20 µM: screening of azo library
T1 construct: RNA elongation assay on calf thymus DNA
Method: (§1) The following procedure is used for cell-free high-throughput screening. A Tomtec Quadra 96-well pipetting station is used to add the reaction components to polypropylene 96-well dishes. 5 μl aliquots of test compounds dissolved in DMSO (or DMSO alone as a control) are added to wells. This is followed by 20 μl of the RNA polymerase II mixture, which consists of: 10 mM DTT, 200 mM KCl, 10 mM Mn^+2, 1.5 μM bovine serum albumin, and 0.25 μg reconstituted RNA polymerase. After allowing the test compound to interact with the RNA polymerase, 25 μl of the DNA/NTP mixture is added, containing: 1 μg calf thymus DNA, 4 μM [α-^32 P]-UTP, and 400 μM each CTP, ATP, and GTP.
(§2) After incubation for 60 min at 30 C, the reaction is stopped by addition of 50 μl 15% trichloroacetic acid (TCA). The TCA-precipitated RNA is adsorbed onto double-thick glass fiber filtermats using a Tomtec cell harvester. The wells of the microtiter plate and the filter are washed twice with 5% TCA and bound radioactivity is determined using a Wallac microbeta 1450 scintillation counter.
(§3) Inhibitory activity due to the test compound is calculated according to the formula: [formula] where cpmpositive control represents the average of the cpm in wells that received DMSO alone, and cpmsample represents the cpm in the well that received test compound. Compounds that cause at least 50% inhibition are scored as positive "hits" in this assay.
(§4) DNA-directed RNA polymerase II from Candida albicans was purified in sufficient quantity to support high throughput screening of large synthetic chemical and natural product libraries. A biochemical mechanism-based screen for detecting inhibitors of Pol II was developed and implemented. The screen is outlined in FIGS. 4A and 4B.

human Pol II = biological target: T2, human Pol II (Homo sapiens, UniProt P24928+P30876); assay: RNA polymerase II counterscreen, human pol II; assay type: biochemical
T2 construct: Pol II was isolated from Aspergillus nidulans, Saccharomyces cerevisiae, and human cells; endogenous in cells; enzyme isolated from them
Method: Pol II was isolated from Aspergillus nidulans, Saccharomyces cerevisiae, and human cells (FIG. 5) and used in secondary screens for fungal spectrum and specificity. Pol I and Pol III were isolated from Candida albicans and used as an additional mechanism to study specificity. Confirmed hits form the primary assay and were evaluated against this panel of polymerases. Agents with activity against Pol II from multiple fungal enzymes but not against the human counterpart were evaluated in vitro against fungal pathogens.

[2] = system: C. albicans resistant to fluconazole; assay: Systemic candidiasis caused by fluconazole-resistant C. albicans; settings: mouse, in vivo
Method: (§5) In addition, Compound 1 was efficacious in a murine model for systemic candidiasis (FIG. 10). It prolonged mean and median survival times of treated mice in the dosage range of 5 mg/kg/d to 100 mg/kg/d on aq.d., d2-11 schedule. […] The efficacy of Compound 1 was confirmed in a separate experiment using amphotericin as a control (FIG. 11). Compound 1 was also efficacious when administered orally to mice with an established systemic Candida infection (FIG. 12). […] Compound 1 is also effective against systemic candidiasis caused by a strain of C. albicans resistant to fluconazole (FIG. 13). Additional animal testing will include acute toxicity determination, route and schedule dependency in standard efficacy models, efficacy testing in immunosuppressed Candida infected mice, efficacy in an Aspergillus infection model, and pharmacokinetics following IV and oral dosing.
(§6) Compound 6 was evaluated for antifungal efficacy in a systemic candidiasis model in immunocompetent mice (FIG. 18). The compound was administered IP on a q.d., d2-11 schedule. […] 90% long term survival was seen formice treated with Compound 6 at 200/mg/kg. 30% of mice survived when treated with Compound 6 at 100 mg/kg/d. Compound 6 was also effective against systemic candidiasis when administered orally (FIG. 19) and it was effective in treating infections caused by fluconazole-resistant C. albicans.

[3] = system: systemic Candida infection; assay: Murine model for systemic candidiasis; assay type: in vivo, mouse
Method: as §5, §6

fungal pathogens = assay: In vitro antifungal activity (MIC); assay type: cell-based
[4] = Compound-related toxicity in treated mice; assay type: in vivo, mouse; settings: IP, q.d., d2-11, any of the treatment groups, immunocompetent mice
Method: as §5, §6

[5] = system: C. albicans RNA polymerase II; assay: biochemical
Method: as §1, §2, §3, §4

S. cerevisiae = assay: Time course of fungicidal activity, S. cerevisiae; assay type: cell-based, Saccharomyces cerevisiae; settings: S. cerevisiae cells
Source text: (§7) Compound 1 is rapidly fungicidal.

C. albicans = assay: Time course of fungicidal activity, C. albicans; assay type: cell-based, Candida albicans; settings: C. albicans cells
Source text: as §7

[6] = Table 2, read-out: IC50 Human pol II
[7] = Table 1, read-out: IC50 Human pol II
[8] = listed as stilbene isostere of Compound 1
[9] = 1.5 μg/ml, similar time (45 minutes)

T1 sequence (A0A1D8PUA6 1-1728): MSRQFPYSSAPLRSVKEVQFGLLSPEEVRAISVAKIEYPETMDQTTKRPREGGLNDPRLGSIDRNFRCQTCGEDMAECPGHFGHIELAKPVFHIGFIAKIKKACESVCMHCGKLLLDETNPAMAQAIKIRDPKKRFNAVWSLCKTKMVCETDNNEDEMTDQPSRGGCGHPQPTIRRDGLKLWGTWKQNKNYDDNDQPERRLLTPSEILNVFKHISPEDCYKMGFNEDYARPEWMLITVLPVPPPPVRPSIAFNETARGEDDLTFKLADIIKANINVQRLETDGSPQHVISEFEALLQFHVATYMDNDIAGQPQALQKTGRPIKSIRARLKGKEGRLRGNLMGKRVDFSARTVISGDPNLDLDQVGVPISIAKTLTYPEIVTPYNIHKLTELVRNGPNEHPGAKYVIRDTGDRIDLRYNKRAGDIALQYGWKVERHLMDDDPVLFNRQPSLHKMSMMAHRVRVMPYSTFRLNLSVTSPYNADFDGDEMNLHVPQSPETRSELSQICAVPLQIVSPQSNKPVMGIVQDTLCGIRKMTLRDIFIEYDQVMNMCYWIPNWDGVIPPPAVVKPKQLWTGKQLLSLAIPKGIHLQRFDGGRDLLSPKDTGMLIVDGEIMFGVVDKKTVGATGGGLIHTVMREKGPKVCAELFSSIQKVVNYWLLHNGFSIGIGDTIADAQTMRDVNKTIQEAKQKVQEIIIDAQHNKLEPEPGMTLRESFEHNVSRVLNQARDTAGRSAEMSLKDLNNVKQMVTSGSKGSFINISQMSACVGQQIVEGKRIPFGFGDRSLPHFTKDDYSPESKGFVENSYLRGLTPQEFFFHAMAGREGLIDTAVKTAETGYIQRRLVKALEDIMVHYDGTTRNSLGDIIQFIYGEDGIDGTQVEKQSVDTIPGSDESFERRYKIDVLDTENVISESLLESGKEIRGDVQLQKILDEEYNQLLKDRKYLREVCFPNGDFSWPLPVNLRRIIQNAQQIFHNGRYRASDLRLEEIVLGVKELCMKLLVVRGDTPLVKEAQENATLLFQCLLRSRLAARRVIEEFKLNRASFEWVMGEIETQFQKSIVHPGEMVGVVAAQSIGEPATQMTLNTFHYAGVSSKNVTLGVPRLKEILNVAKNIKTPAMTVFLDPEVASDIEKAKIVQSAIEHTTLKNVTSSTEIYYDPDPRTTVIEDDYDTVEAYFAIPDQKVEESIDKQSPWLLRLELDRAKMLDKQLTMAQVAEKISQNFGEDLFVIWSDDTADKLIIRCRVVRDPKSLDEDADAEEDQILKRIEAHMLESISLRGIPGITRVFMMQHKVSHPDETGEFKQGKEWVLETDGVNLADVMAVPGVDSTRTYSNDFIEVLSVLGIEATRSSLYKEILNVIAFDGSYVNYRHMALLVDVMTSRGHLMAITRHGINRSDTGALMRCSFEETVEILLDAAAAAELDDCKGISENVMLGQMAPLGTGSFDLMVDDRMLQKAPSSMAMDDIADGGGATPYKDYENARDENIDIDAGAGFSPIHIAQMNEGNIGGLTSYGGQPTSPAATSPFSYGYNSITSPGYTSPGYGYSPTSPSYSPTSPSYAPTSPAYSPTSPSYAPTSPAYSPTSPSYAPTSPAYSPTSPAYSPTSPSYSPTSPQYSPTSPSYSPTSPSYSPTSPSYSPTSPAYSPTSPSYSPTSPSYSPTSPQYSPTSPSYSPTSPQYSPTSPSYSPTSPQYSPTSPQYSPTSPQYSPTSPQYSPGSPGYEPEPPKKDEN
T1 sequence (Q5A8Y5 1-1234): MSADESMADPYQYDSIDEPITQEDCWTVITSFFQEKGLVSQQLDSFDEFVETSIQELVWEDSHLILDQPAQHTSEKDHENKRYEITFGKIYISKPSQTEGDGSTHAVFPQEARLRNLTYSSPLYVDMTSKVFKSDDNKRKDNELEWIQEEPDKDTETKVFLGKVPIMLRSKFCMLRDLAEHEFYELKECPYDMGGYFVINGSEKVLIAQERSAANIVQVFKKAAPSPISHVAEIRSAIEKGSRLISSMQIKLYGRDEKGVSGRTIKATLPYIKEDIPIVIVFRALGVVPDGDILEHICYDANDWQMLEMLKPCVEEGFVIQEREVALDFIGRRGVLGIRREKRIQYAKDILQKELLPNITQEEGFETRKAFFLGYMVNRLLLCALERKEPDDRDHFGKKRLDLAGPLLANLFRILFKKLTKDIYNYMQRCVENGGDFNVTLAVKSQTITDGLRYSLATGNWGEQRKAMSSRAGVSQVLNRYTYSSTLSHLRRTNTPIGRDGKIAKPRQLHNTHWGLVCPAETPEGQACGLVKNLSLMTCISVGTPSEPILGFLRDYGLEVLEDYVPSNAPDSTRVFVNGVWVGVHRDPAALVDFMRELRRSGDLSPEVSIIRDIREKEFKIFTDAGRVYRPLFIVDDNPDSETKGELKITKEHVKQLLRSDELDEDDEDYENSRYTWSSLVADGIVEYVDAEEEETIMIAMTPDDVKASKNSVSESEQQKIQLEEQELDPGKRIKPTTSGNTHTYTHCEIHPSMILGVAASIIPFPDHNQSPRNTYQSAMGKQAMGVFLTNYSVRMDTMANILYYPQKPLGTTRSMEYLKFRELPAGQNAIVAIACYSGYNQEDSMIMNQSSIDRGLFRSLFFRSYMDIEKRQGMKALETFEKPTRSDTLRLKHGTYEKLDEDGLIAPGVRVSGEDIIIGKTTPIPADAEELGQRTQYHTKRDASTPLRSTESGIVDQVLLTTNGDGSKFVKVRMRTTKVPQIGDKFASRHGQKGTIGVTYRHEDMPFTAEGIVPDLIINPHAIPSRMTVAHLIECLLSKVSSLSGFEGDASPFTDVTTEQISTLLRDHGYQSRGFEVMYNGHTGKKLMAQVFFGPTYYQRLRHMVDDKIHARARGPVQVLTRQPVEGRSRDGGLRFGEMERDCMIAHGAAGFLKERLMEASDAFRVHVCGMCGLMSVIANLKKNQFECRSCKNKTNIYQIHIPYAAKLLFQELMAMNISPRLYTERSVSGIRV

Compound “4-[-2-[3-(trifluoromethyl)phenyl]diazenyl]-2-hydroxy-phenol [Compound 4]” has an IC50 ([1]; Table 2) of 70 µM and an IC50 (human Pol II; [6]) of 230 µM.
With Oc1ccc(CCc2cccc(C(F)(F)F)c2)cc1 [CH2 CH2] the IC50 ([1]; Table 1) was 230 µM and the IC50 (human Pol II; [7]) was greater than 2000 µM.
In the case of O=C(Nc1ccc(O)cc1)c1cccc(C(F)(F)F)c1 [CONH], the IC50 ([1]; Table 1) is reported as 51 µM and the IC50 (human Pol II; [7]) is reported as 500 µM.
COc1ccc(N=Nc2cccc(C(F)(F)F)c2)cc1 [Compound 3, 4-[-2-[3-(trifluoromethyl)phenyl]diazenyl]-anisole] showed an IC50 ([1]; Table 2) greater than 2000 µM and an IC50 (human Pol II; [6]) greater than 2000 µM.
Cc1cccc(N=Nc2ccc(O)cc2)c1 [Compound 5, 4-[-2-[3-(methyl)phenyl]diazenyl]-phenol] gave an IC50 ([1]; Table 2) of 90 µM and an IC50 (human Pol II; [6]) of 340 µM.
In the case of Oc1ccc(C=Cc2cccc(C(F)(F)F)c2)cc1 [Compound 6, 4-[-2-[3-(trifluoromethyl)phenyl]ethenyl]phenol], the “efficacy against systemic candidiasis caused by fluconazole-resistant C. albicans” value [2] is reported as “effective”, the mice survived ([3]; IP q.d. d2-11, 100 mg/kg/d, immunocompetent mice) is reported as 30% and the long term survival ([3]; IP q.d. d2-11, 200/mg/kg, immunocompetent mice) is reported as 90%. For the same compound, the “efficacy against systemic candidiasis when administered orally” value ([3]; oral) was “effective”, the “in vitro antifungal activity / spectrum” value (fungal pathogens) was “broadly active against fungi” and the MIC (fungal pathogens; Table 1, antifungal activity, read-out: MIC) was 8.2 µg/mL (≈ 31 µM). The “in vitro antifungal activity / spectrum” value (fungal pathogens; [8]) was “had antifungal activity”, the compound-related toxicity [4] was “no evidence of compound-related toxicity” and the “selectivity for Candida/fungal Pol II relative to human Pol II” value [5] was “selective”. For the same compound, the “selectivity for Candida/fungal Pol II relative to human Pol II” value [5, 8] was “retained selective activity”, the IC50 ([1]; Table 1) was 70 µM and the IC50 (human Pol II) was 230 µM.
For O=[N+]([O-])c1cc(C(F)(F)F)ccc1N=Nc1ccc(O)cc1 [Compound 7], the IC50 ([1]; Table 2) was 190 µM and the IC50 (human Pol II; [6]) was 300 µM.
For O=[N+]([O-])c1cc(N=Nc2cccc(C(F)(F)F)c2)ccc1O [Compound 8, 4-[-2-[3-(trifluoromethyl)phenyl]diazenyl]-2-nitrophenol], the IC50 ([1]; Table 2) was 103 µM and the IC50 (human Pol II; [6]) was greater than 2000 µM.
In the case of O=C(O)c1cc(N=Nc2cccc(C(F)(F)F)c2)ccc1O [Compound 9, 5-[-2-[3-(trifluoromethyl)phenyl]diazenyl]-2-hydroxy-benzoic acid], the IC50 ([1]; Table 2) is reported as 193 µM and the IC50 (human Pol II; [6]) is reported as 148 µM.
With O=Cc1cc(/N=N/c2cccc(C(F)(F)F)c2)ccc1O [Compound 10, 5-[(E)-2-[3-(trifluoromethyl)phenyl]diazenyl]-2-hydroxy-benzaldehyde] the IC50 ([1]; Table 2) was 34 µM and the IC50 (human Pol II; [6]) was 82 µM.
With Oc1ccc(N=Nc2cccc(Cl)c2)cc1 [Compound 11, 4-[-2-[3-(chloro)phenyl]diazenyl]phenol] the inhibition at 20 µM [1] was 50%.
O=[N+]([O-])c1cccc(N=Nc2ccc(O)cc2)c1 [Compound 12, 4-[-2-[3-(nitro)phenyl]diazenyl]phenol] gave an inhibition at 20 µM [1] of 45%.
With Oc1ccc(N=Nc2cccc(C(F)(F)F)c2F)cc1 [Compound 13, 4-[-2-[2-fluoro-3-(trifluoromethyl)phenyl]diazenyl]phenol] the inhibition at 20 µM [1] was 38%.
With Oc1ccc(N=Nc2ccc(F)c(C(F)(F)F)c2)cc1 [Compound 14] the inhibition at 20 µM [1] was 42%.
Oc1ccc(N=Nc2cc(C(F)(F)F)ccc2F)cc1 [Compound 15, 4-[-2-[6-fluoro-3-(trifluoromethyl)phenyl]diazenyl]phenol] showed an inhibition at 20 µM [1] of 39%.
Work on Oc1ccc(N=Nc2cc(C(F)(F)F)cc(C(F)(F)F)c2)cc1 [Compound 16, 4-[-2-[3,5-(di-trifluoromethyl)phenyl]diazenyl]phenol] yielded an inhibition at 20 µM [1] of 28%.
Compound COc1cc(N=Nc2ccc(O)cc2)cc(C(F)(F)F)c1 [Compound 17] has an inhibition at 20 µM [1] of 53%.
N#Cc1cc(N=Nc2cccc(C(F)(F)F)c2)ccc1O [Compound 18, 4-[-2-[3-(trifluoromethyl)phenyl]diazenyl]-2-cyano-phenol] gave an inhibition at 20 µM [1] of 37%.
OCc1cc(N=Nc2cccc(C(F)(F)F)c2)ccc1O [Compound 19, 4-[-2-[3-(tnfluoromethyl)phenyl]diazenyl]-2-(hydroxymethyl)-phenol] gave an inhibition at 20 µM [1] of 33%.
In the case of N#Cc1cc(O)ccc1N=Nc1cccc(C(F)(F)F)c1 [Compound 20, 4-[-2-[3-(trifluoromethyl)phenyl]diazenyl]-3-cyano-phenol], the inhibition at 20 µM [1] is reported as 28%.
For OCc1cc(O)ccc1N=Nc1cccc(C(F)(F)F)c1 [Compound 21, 4-[-2-[3-(trifluoromethyl)phenyl]diazenyl]-3-(hydroxymethyl)-phenol], the inhibition at 20 µM [1] was 39%.
Cc1cc(O)ccc1N=Nc1cccc(C(F)(F)F)c1 [Compound 22, 4[-2-[3-(trifluoromethyl)phenyl]diazenyl]-3-methyl-phenol] showed an inhibition at 20 µM [1] of 42%.
Work on O=[N+]([O-])c1cc(O)ccc1N=Nc1cccc(C(F)(F)F)c1 [Compound 23, 4-[-2-[3-(trifluoromethyl]phenyl)diazenyl]-3-nitro-phenol] yielded an inhibition at 20 µM [1] of 37%.
Work on COc1ccc(C=Cc2cccc(C(F)(F)F)c2)cc1 [Compound 24, 4-[-2-[3-(trifluoromethyl)-phenyl]ethenyl]-anisole] yielded an IC50 ([1]; Table 2) greater than 2000 µM and an IC50 (human Pol II; [6]) greater than 2000 µM.
COCOc1ccc(C=Cc2cccc(C(F)(F)F)c2)cc1 [Compound 25, 4-[-2-[3-(trifluorometbyl)phenyl]ethenyl]-methoxymethoxyl phenyl] showed an IC50 ([1]; Table 2) greater than 2000 µM and an IC50 (human Pol II; [6]) greater than 2000 µM.
With Oc1ccc(C=Cc2cccc(C(F)(F)F)c2)cc1Br [Compound 26, 4-[-2-[3-(trifluoromethyl)phenyl]ethenyl]-2-bromo-phenol] the IC50 ([1]; Table 2) was 42 µM and the IC50 (human Pol II; [6]) was 84 µM.
With OB(O)c1cc(C=Cc2cccc(C(F)(F)F)c2)ccc1O [Compound 27] the IC50 ([1]; Table 2) was 58 µM and the IC50 (human Pol II; [6]) was 136 µM.
With O=C(Nc1cccc(C(F)(F)F)c1)c1ccc(OCc2ccccc2)cc1 [Compound 29, 4-benzoxy-N-[3-(trifluoromethyl)phenyl]benzamide] the IC50 ([1]; Table 2) was greater than 2000 µM and the IC50 (human Pol II; [6]) was greater than 2000 µM.
In the case of O=C(Nc1cccc(C(F)(F)F)c1)c1ccc(O)cc1 [Compound 30, 4-hydroxy-N-[3-(trifnuoromethyl)phenyl]benzamide], the IC50 ([1]; Table 1) is reported as 27 µM and the IC50 (human Pol II; [7]) is reported as 82 µM.
With O=C(O)CN(CCN(CC(=O)O)CC(=O)O)CC(=O)O [EDTA, reference compound] the inhibition at 10 µM ([1]; 1 h, read-out: inhibition of transcription) was no less than 90%.
For C[C@@H]1[C@H](O)[C@@H](C)/C=C/C=C/C=C/C=C/C=C/C=C/C=C/[C@H](O[C@@H]2O[C@H](C)[C@@H](O)[C@H](N)[C@@H]2O)C[C@@H]2O[C@](O)(C[C@@H](O)C[C@@H](O)[C@H](O)CC[C@@H](O)C[C@@H](O)CC(=O)O[C@H]1C)C[C@H](O)[C@H]2C(=O)O [amphotericin B, reference compound], the “exposure time after which no CFUs are recoverable” value (S. cerevisiae) was roughly 30 min, the “colony forming units after exposure” value (S. cerevisiae; [9]) was “no colony forming units are detected” and the “exposure time after which no CFUs are recoverable” value (C. albicans) was roughly 30 min. The “colony forming units after exposure” value (C. albicans; [9]) was “no colony forming units are detected”.
For OC(Cn1cncn1)(Cn1cncn1)c1ccc(F)cc1F [fluconazole, reference compound], the “recoverable colonies from the kidneys of treated animals” value ([3]; systemic candidiasis, mice) was “reduced”.
